# Earlier results, collected in article PMC5896373 (Molecular Pharmacology, 2018).
# Target: T1, P2X7R mutant Insert G99 (Homo sapiens, UniProt Q99572, I21V/INS99D/M24R/N16P/N25R/Q22R/R20V/S23N/T19I/Y26L)
# T1 construct: expressed in transfected cells; host or cells: Xenopus laevis oocytes (cRNA injection)
# T1 sequence (Q99572 with tags, fused parts or gaps N16P/T19I/R20V/I21V/Q22R/S23N/M24R/N25R/Y26L/INS99D): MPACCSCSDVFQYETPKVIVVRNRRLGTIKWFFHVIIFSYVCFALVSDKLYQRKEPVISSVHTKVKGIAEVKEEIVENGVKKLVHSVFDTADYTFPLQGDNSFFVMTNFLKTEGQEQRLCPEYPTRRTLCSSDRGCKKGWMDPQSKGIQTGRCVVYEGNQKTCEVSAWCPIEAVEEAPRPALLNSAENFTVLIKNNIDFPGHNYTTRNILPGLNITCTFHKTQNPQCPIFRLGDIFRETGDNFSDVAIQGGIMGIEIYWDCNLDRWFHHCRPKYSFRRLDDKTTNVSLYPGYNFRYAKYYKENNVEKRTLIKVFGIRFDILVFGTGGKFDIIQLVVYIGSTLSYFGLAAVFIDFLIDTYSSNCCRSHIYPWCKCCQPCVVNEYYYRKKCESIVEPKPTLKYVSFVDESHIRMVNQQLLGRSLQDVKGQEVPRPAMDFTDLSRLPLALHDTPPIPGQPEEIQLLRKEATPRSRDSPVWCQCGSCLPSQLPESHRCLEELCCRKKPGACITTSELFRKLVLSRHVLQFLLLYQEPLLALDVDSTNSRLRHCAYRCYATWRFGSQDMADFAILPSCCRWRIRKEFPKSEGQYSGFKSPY
# Set-up: method as in Allsopp et al., 2017
# Conditions: aspartic acid inserted between G99 and N100; ref Allsopp et al., 2017; cited from earlier work
compound,measurement,value
"Cl.Cl.O=C(CC12CC3CC(CC(C3)C1)C2)Nc1cccc2nc(NCCNCCO)ccc12 [AZ10606120, N-[2-[[2-[(2-hydroxyethyl)amino]ethyl]amino]-5-quinolinyl]-2-tricyclo[3.3.1.13,7]dec-1-ylacetamide dihydrochloride]",effect on antagonist binding,little effect
